Data as given in the METLIN SMRT retention time set (Domingo-Almenara et al. 2019).

Assay: gradient 5% acetonitrile 3 min, to 50% in 2 min, to 85% in 15 min, held 3 min, 100 µL/min
Conditions: column: Zorbax Extend-C18 2.1 x 50 mm; eluents: water / acetonitrile, 0.1% formic acid
In short: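 Data were gathered over 3 months by HPLC coupled to a quadrupole time-of-flight mass spectrometer, operated in positive and negative ionization mode. Mixtures of ~100 pure standards ran on a Zorbax Extend-C18 column (2.1 × 50 mm, 1.8 μm) at 100 μL/min, with water and acetonitrile each containing 0.1% formic acid and dead and dwell volumes of 40 μL and 900 μL. Retention time was read from adduct peaks picked by computer and checked manually.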

| Compound | RP-LC retention time |
| --- | --- |
| CN(Cc1ccc(F)cc1Cl)C1CCc2nnc(C3CCOCC3)n2CC1 (centres undefined) | 561 s |
| CN(C)c1cccc(C(=O)Nc2ccc(CC(=O)NC(C)(C)CO)cc2)c1 | 594 s |
| CC(C)CCn1nc2c(S(=O)(=O)N3CCCCC3)cccn2c1=O | 906 s |
| O=C(c1cccc(F)c1)N1CCC(C(=O)N2CCN(Cc3ccc4c(c3)OCO4)CC2)CC1 | 610 s |
| Cc1cccc(-c2ncccc2CNS(=O)(=O)c2ccccc2Cl)c1 | 732 s |
| COc1ccccc1N1CCN(C(=O)c2cn(-c3ccc(NC(C)=O)cn3)cn2)CC1 | 646 s |
| O=C(c1ccc2c(c1)OCCO2)N1CCCCC1 | 839 s |
| CNC(=O)c1nn(C)c2c1C(C)(C)Cc1cnc(Nc3ccc(N4CCN(C)CC4)cc3)nc1-2 | 656 s |
| COc1cccc(-c2nc(CN3CCCC3=O)no2)c1 | 697 s |
| Cc1ccc(CNC(=O)N2CCN(c3ncccc3-c3nnc(C4CC4)o3)CC2)cc1 | 780 s |
| Cc1ccc(C)c(NC(=O)N2CC(n3cnnc3-c3ccccc3)C2)c1 | 712 s |
| O=C(NC1CCCC1)c1nc(C(=O)N2CCN(c3ccccc3F)CC2)cs1 | 940 s |
| CC(C)(C)NC(=O)N1CCN(c2cc(-c3cccc(F)c3)ncn2)CC1 | 669 s |
| O=C(CCc1csc(NC(=O)c2ccccc2)n1)Nc1nc2ccc(Cl)cc2s1 | 970 s |
| Cc1nc2cc3c(cc2n1CC(=O)Nc1ccc(F)c(Cl)c1)OCCO3 | 690 s |
| Clc1ccccc1-c1noc(Cc2nc(-c3ccc4c(c3)OCO4)cs2)n1 | 1140 s |
| CCOC(=O)c1ccccc1NC(=O)N(Cc1cccs1)C1CCN(CC)CC1 | 756 s |
| COc1ccc(Br)c(C(=O)N2CC(c3nc(-c4cccc(Cl)c4)no3)C2)c1 | 1000 s |
| CC(C)CC1c2nccn2CCCN1C(=O)c1cc(C2CC2)[nH]n1 (centres undefined) | 614 s |
| CC1=C(C(=O)N(CC(=O)NCCc2ccccc2)c2ccc(Cl)cc2)SCCO1 | 956 s |
| O=C(NC1CCCCCC1)C1CCN(Cc2cc3ccccc3n2Cc2cccc(F)c2)CC1 | 848 s |
| CC(=O)NCCc1c(Cc2ccccc2)[nH]c2ccccc12 | 876 s |
| Cc1nn2c(CNS(=O)(=O)c3cc(F)ccc3F)c(-c3ccccc3)nc2s1 | 848 s |

| Compound | RP-LC retention time |
| --- | --- |
| Cc1ccc(NC(=O)N2C[C@H](c3nc(-c4ccncc4)no3)[C@@H](C)C2)cc1C | 858 s |
| Cc1onc(-c2ccccc2Cl)c1C(=O)Nc1nc(-c2ccc([N+](=O)[O-])cc2)cs1 | 1100 s |
| CC(C)c1noc(-c2ccn3c(CC(=O)NC4CCCCC4)nnc3c2)n1 | 760 s |
| Cc1nc(OCC(=O)NCc2ccc(F)cc2)c2ccccc2n1 | 705 s |
| Cc1ccc(-c2cn3c(CC(=O)NCc4cccs4)csc3n2)cc1C | 799 s |
| COc1ccc(NC(=O)CCc2c(C)nn(-c3cc(N(C)C)ncn3)c2C)cc1Cl | 822 s |
| Cc1ccc(CCNC(=O)C2CCCN(S(=O)(=O)c3cc(-c4noc(C)n4)cs3)C2)cc1 (centres undefined) | 1060 s |
| CCN1C(=O)c2cccnc2Sc2cc(CNC(=O)c3ccc(C#N)cc3F)ccc21 | 760 s |
| Cc1ccc(C(=O)Nc2cnc(N3CCCCC3)nc2)s1 | 822 s |
| O=c1c2ccc(Cl)cc2oc2cc(O)cc(O)c12 | 979 s |
| CCOc1ccc(CNC(=O)c2cn3c(n2)COCC3)cc1 | 614 s |
| Cc1nc(-c2csc(S(=O)(=O)N3CCCC(C(=O)NCc4ccccc4C)C3)c2)no1 (centres undefined) | 983 s |
| COc1ccccc1CCC(=O)Nc1cc(-c2cccnc2)no1 | 781 s |
| COc1ccc(CN2C[C@@H]3C(=O)N(Cc4ccc5c(c4)OCO5)C(=O)[C@@H]3C2)cc1 | 689 s |
| O=C(NCc1ccccc1)c1c(O)c2cccnc2n(-c2cccc(F)c2)c1=O | 1160 s |
| CC(=O)NCCCCCCNC(C)=O | 604 s |
| Cc1cccc(C)c1Nc1c(-c2ccc(Cl)cc2)nc2ncccn12 | 919 s |
| O=C1COc2ccc(S(=O)(=O)N3CCC(C(=O)Nc4ccccc4)CC3)cc2N1 | 759 s |
| COc1ccc(-c2nnc(Cc3nc(-c4ccc(OC)c(F)c4)no3)o2)cc1 | 1040 s |
| CC1CCN(C(=O)C2c3ccccc3CCN2CC(=O)NCc2cccc(Cl)c2)CC1 (centres undefined) | 973 s |
| Cc1cc2ccccc2n2c(SCC(=O)NCc3ccco3)nnc12 | 663 s |
| Cc1cc(S(=O)(=O)[C@H]2CS(=O)(=O)C[C@@H]2N2CCN(c3ccccc3)CC2)ccc1F | 994 s |
| CCc1ccccc1S(=O)(=O)N1CCc2c(c(-c3nc(C4CC4)no3)nn2C)C1 | 1010 s |

| Compound | RP-LC retention time |
| --- | --- |
| COc1ccc(C)cc1NC(=O)CN1C(=O)NC2(CCC(C)CC2)C1=O (centres undefined) | 853 s |
| Cc1ccc2ccc(C#N)cc2c1O | 892 s |
| Cc1ccc(S(=O)(=O)N2CCn3c(nnc3C3CCN(C(C)C)C3)C2)c(C)c1 (centres undefined) | 616 s |
| Cn1cc(C(=O)NCCc2ccccc2)c(S(=O)(=O)N2CCSCC2)n1 | 1030 s |
| CC(=O)Nc1ccc(S(=O)(=O)N2CCc3c(c(-c4nnc(-c5ccc(F)cc5)o4)nn3C)C2)cc1 | 783 s |
| Nc1cc(C2CCN(S(=O)(=O)Cc3cccc(F)c3)CC2)no1 | 742 s |
| COc1ccccc1N1CCN(CCCCN2C(=O)CCC2=O)CC1 | 650 s |
| Cc1cc(N2CCCC2)n2nc(-c3ccc(Cl)cc3)c(C)c2n1 | 799 s |
| COc1ccc(-c2csc(NC(=O)CCCc3nc(-c4ccccc4Cl)no3)n2)cc1 | 1080 s |
| CC(=O)N1CCN(S(=O)(=O)c2cc3c4c(c2)CCC(=O)N4CCC3)CC1 | 647 s |
| COc1ccc(NC(=O)c2cn(-c3cc(N(C)C)ncn3)cn2)c(OC)c1 | 842 s |
| COc1ccc(-c2nc3cc(C)ccn3c2NC(=O)c2cccc(C(F)(F)F)c2)cc1OC | 729 s |
| CC(C)(C)NC(=O)Cn1ccn2nc(-c3ccc(F)cc3)c(CO)c2c1=O | 738 s |
| CCn1cnc2cc(-c3noc(-c4cc(OC)c(OC)c(OC)c4)n3)ccc21 | 732 s |
| Cc1nc(C)c(C(=O)N2CCCC(c3nn(C)c(=O)n3-c3ccccc3)C2)s1 (centres undefined) | 641 s |
| CCCC(NC(=O)c1ccc(OC)c(OC)c1)C(=O)Nc1nc2ccccc2[nH]1 (centres undefined) | 650 s |
| CC(=O)N1N=C(c2ccc(Br)cc2)CC1c1ccc2ncccc2c1 (centres undefined) | 677 s |
| CCOC(=O)C1CCN(S(=O)(=O)c2ccc3c(c2)-c2oncc2CO3)CC1 | 908 s |
| CC(C)c1csc(-c2csc(S(=O)(=O)NCc3ccc4c(c3)OCO4)c2)n1 | 1050 s |
| Cn1cc(S(=O)(=O)N2CCC(C(=O)NCc3cccs3)CC2)cc1C(=O)N1CCCC1 | 706 s |
| CCOC(=O)C1CCN(S(=O)(=O)c2c(C)nc3sc(C)nn23)CC1 | 804 s |
| COc1ccc(OC)c(NC(=O)C(C)n2cnc3nc4c(cc3c2=O)CCCC4)c1 (centres undefined) | 755 s |
| CNC(=O)N1CCCC(c2cccc(C(=O)NCc3cccs3)c2)C1 (centres undefined) | 719 s |

| Compound | RP-LC retention time |
| --- | --- |
| O=C(NC1CCCCCC1)C1CCN(S(=O)(=O)c2cc(-c3noc(C4CCC4)n3)cs2)CC1 | 1110 s |
| O=C(NCc1ccc2c(c1)OCO2)c1ccc2c(c1)N(Cc1ccccc1)C(=O)CO2 | 857 s |
| CCCCCC#CC[C@@H](O)/C=C/C=C/C=C\[C@@H](O)CCCC(=O)O | 991 s |
| O=C(c1c(F)cccc1Cl)N1CCc2nc(-c3ccc(F)cc3)ncc2C1 | 1020 s |
| O=C(CCc1conc1-c1ccccc1)N1CCC(N2CCCCC2)CC1 | 616 s |
| CCCCNC(=O)c1ccc(-c2nc(CCN(C)C(=O)CC)no2)cc1 | 740 s |
| CC1=C(c2cccc(Br)c2)S(=O)(=O)N=C1N1CCN(c2ccccn2)CC1 | 686 s |
| CCOc1ccc(NC(=O)C2CCCN(c3ccc(=O)n(-c4ccc(C)c(Cl)c4)n3)C2)cc1 (centres undefined) | 1010 s |
| CCn1cc(-c2ccc(C)cc2)cc1C(=O)NCc1cccnc1 | 713 s |
| CC(C)NC(=O)C1CCCN(c2nc3ncn(CC(=O)Nc4ccc(C(C)C)cc4)c(=O)c3s2)C1 (centres undefined) | 785 s |
| c1ccc(-c2nnc3oc(-c4cccs4)nn23)cc1 | 911 s |
| O=C(Cn1cnc2c(sc3nc(-c4ccccc4)ccc32)c1=O)Nc1ccc(F)cc1 | 994 s |
| CCCc1noc(-c2ccnc(-n3ncc(C(=O)NC4CC4)c3C)c2)n1 | 839 s |
| CCOc1ccc(C(=O)NCc2noc(-c3cccc(Cl)c3)n2)cc1 | 963 s |
| O=C(N1CCC(Cc2nc(C3CCOCC3)no2)CC1)C1(c2ccccc2)CC1 | 817 s |
| Cc1ccc(Sc2nccnc2N2CCCC(C(=O)NCc3ccccn3)C2)cc1 (centres undefined) | 766 s |
| Cc1oc2ccn(Cc3ccc(F)cc3)c(=O)c2c1C(=O)O | 873 s |
| Cc1noc(-c2ccc(OC3CN(C(=O)NC4CCCCC4)C3)cc2)n1 | 846 s |
| Cc1noc2nc(CCC(=O)NCCCN3CCc4ccccc4C3)nc(N3CCCCC3)c12 | 670 s |
| COc1ccccc1-c1noc(-c2nc(-c3ccc4c(c3)OCO4)no2)n1 | 1120 s |
